Measured values reported in patent US7579356B2, “Thia-tetraazaacenaphthylene kinase inhibitors” (Janssen Pharmaceutica NV, priority 2005, dated 2009).

What was measured:
EGFR = target: T1, EGFR (Homo sapiens, UniProt P00533); assay: EGFR Kinase Assay; format: biochemical; settings: for IC50: GST-EGFR, ATP 5 μM; for inhibition at 2 µM: test concentration of 2 μM, compounds without an IC50, read-out: EGFR inhibition in percent
T1 construct: The intracellular portion of EGFR started at nucleotide 2189 (corresponding to amino acid 667) and ended at the termination codon; made in house; host or cells: Sf9 insect cells (baculovirus)
T1 sequence (P00533 669-1210 limits assumed): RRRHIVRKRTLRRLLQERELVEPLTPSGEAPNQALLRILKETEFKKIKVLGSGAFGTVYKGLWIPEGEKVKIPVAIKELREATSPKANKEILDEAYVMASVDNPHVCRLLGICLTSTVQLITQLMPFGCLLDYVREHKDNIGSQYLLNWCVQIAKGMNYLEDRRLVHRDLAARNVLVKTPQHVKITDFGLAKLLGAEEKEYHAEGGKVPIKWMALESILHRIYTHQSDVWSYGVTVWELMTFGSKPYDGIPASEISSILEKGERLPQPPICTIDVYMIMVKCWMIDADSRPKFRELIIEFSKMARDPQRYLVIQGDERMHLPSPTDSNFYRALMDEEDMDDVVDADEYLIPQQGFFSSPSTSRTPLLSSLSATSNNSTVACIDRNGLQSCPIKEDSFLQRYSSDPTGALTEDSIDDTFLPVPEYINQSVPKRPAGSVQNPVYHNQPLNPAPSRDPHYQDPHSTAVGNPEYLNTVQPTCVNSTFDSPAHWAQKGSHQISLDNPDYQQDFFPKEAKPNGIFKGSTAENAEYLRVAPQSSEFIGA
Source text: The EGFR kinase used was a fusion of Glutathione-S-Transferase (GST) and a PCR amplified intracellular portion of EGFR (Accession Number NM_005228). The intracellular portion of EGFR started at nucleotide 2189 (corresponding to amino acid 667) and ended at the termination codon. The portion was PCR amplified with primers that added the lambda attB sequences to each end, recombined into an entry vector, then into a GST destination vector (as described in Gateway Technologies Manual by Invitrogen Corporation, Carlsbad, Calif.).
The destination vector was recombined in the DH10BAC strain of bacteria to produce a bacmid. The bacmid was transfected into Sf 9 cells and the supernatant containing the baculovirus was collected. The GSTEGFR protein was purified using large cultures of Sf 9 cells infected with stock virus. After an appropriate period of time, the cells were collected and lysed. The GSTEGFR was then purified from the lysate on Glutathione-Sepharose columns (as described by Amersham Biosciences, Buckinghamshire, United Kingdom).
The EGFR substrate was prepared by biotinylating polyGluTyr (128 mg) (Sigma, St. Louis, Mo.) in a 1×PBS buffer incubated together with a 12-fold molar excess of Sulfo-NHS-LC-Biotin on ice for at least 2 hrs. The free biotin was separated from the biotinylated polyGluTyr on a gel filtration column.
A mixture of a 10× kinase buffer (500 mM Tris at pH 8.0, 100 mM Magnesium Chloride and 1 mM Sodium Vanadate), DTT (1 mM final from 500 mM stock), ATP (5 μM final from 10 mM stock), biotinylated polyGluTyr (10 μg/μL stock), γ-^33P ATP (10 μCl/μL stock) and water was added to each well (for a total of 90 μL/well) of a Streptavidin Flashplate (Perkin Elmer, Wellesley, Mass.).
Test compound in 100% DMSO (2 μL) was added to the appropriate wells. Diluted GSTEGFR (1:300 dilution in 50 mM Tris at pH 8.0 and 0.1% bovine serum albumin) (10 μL) was added to the wells to initiate the reactions.
The plates were incubated at 30° C. for 1 hr with shaking. The reacted contents were removed and the plates were sequentially washed three times with a 1×PBS stop buffer (300 μL without Magnesium and Calcium) and 100 mM EDTA. After the final wash, the same stop buffer (200 μL) was added to the wells. The plates were then sealed and read on the TopCount scintillation counter.
Test compounds were assayed in triplicate at 16 concentrations at half-log dilutions starting at 200 uM. A maximum and minimum signal for the assay was determined on each plate. The percent inhibition of a test compound was calculated according to the formula: […]
For a series of test concentrations, the IC50 was derived by graphing percent inhibition against the log of the concentrations tested for a given compound. For those compounds without an IC50, the inhibition values in percent are shown at a test concentration of 2 μM. For compounds with multiple values, each value represents a separate assay result.

HER-2 = target: T2, HER-2 (Homo sapiens, UniProt P04626); assay: HER-2 Kinase Assay; format: biochemical; settings: for inhibition at 1 µM: test concentration of 1 μM; for IC50: value in parentheses
T2 construct: His6 with thrombin site (N); purchased Proqinase (Freiburg, Germany)
T2 sequence (P04626 679-1255): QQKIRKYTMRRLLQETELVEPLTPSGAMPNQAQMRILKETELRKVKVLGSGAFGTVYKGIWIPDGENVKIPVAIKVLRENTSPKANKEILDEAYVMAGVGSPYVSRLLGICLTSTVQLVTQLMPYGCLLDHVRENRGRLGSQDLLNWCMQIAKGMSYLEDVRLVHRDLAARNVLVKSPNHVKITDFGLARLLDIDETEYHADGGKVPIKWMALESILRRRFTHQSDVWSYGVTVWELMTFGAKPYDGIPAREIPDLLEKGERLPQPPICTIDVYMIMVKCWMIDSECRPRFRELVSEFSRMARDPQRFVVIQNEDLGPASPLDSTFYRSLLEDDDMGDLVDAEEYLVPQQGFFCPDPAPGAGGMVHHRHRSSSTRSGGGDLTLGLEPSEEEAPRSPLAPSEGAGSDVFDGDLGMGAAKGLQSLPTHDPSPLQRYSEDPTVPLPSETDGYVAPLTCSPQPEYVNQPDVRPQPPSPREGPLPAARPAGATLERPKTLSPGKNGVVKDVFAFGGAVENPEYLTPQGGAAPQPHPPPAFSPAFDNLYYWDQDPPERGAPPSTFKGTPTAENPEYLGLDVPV
Experimental: The HER-2 kinase used was purified at Proqinase (Freiburg, Germany) from a construct that consisted of a fusion of GST (Glutathione-S-Transferase), HIS6-Thrombin and the nucleotides encoding amino acids 679 to 1255 of HER-2 (Accession Number M11730).
A mixture of a 10× kinase reaction buffer (600 mM Hepes at pH 7.5, 30 mM Magnesium Chloride, 0.03 mM Sodium Vanadate and 500 μg/mL PEG 20,000), DTT (1.2 mM final from a 10 mM stock), APT (1 μM from a 10 mM stock), biotinylated polyGluTyr (1.5 ng/μL final from stock of 1 μg/μL) prepared by Upstate Biotechnologies, Lake Placid, N.Y.), Manganese Chloride (3 mM final from a 1 M stock), γ-^33P-ATP (10 μCl/μL stock) and water (70 μL/well) was added to each well of a Streptavidin Flashplate (Cat. # SMP103, NEN, Boston, Mass.).
Test compound stock (1 μL) was added to the appropriate wells. Diluted GSTHER2 kinase (6.7 ng/μL diluted into 50 mM Tris-HCl at pH 8.0 and 0.1% bovine serum albumin) (30 μL) was added (total volume of 200 ng/well) to initiate the reactions.
The reaction plates were incubated at 30° C. for 1 hr. The reaction was terminated by aspirating the reaction mixture from the plate wells and washing the wells three times with a 1×PBS stop buffer (300 μL) and 100 mM EDTA. After the final wash, the same stop buffer (200 μL) was again added to the wells. The plates were then sealed and read on the TopCount scintillation counter.
The Her-2 inhibition values were derived according to the procedure described in Example 164 and are shown as percent in Table 4 at a test concentration of 1 μM. For those compounds with an IC50, the IC50 value in μM is shown in parentheses. For compounds with multiple test values, each value represents a separate assay result.

| Compound | IC50 (EGFR) | inhibition at 1 µM (HER-2) | IC50 (HER-2) | inhibition at 2 µM (EGFR) |
| --- | --- | --- | --- | --- |
| O=C(Nc1ccc(CN2CCCC2)cc1)c1sc2ncnc3c2c1NC(=O)N3c1ccc(F)c(Cl)c1 [Cpd 7, 5-(3-chloro-4-fluoro-phenyl)-4-oxo-4,5-dihydro-3H-1-thia-3,5,6,8-tetraaza-acenaphthylene-2-carboxylic acid (4-pyrrolidin-1-ylmethyl-phenyl)-amide] | 7 nM | 69% |  |  |
| O=C(Nc1ccc(CN2CCOCC2)cc1)c1sc2ncnc3c2c1NC(=O)N3c1ccc(F)c(Cl)c1 [Cpd 13, 5-(3-chloro-4-fluoro-phenyl)-4-oxo-4,5-dihydro-3H-1-thia-3,5,6,8-tetraaza-acenaphthylene-2-carboxylic acid (4-morpholin-1-ylmethyl-phenyl)-amide] | 41 nM | 40% | 804 nM |  |
| CN1CCN(Cc2ccc(NC(=O)c3sc4ncnc5c4c3NC(=O)N5c3ccc(F)c(Cl)c3)cc2)CC1 [Cpd 14, 5-(3-chloro-4-fluoro-phenyl)-4-oxo-4,5-dihydro-3H-1-thia-3,5,6,8-tetraaza-acenaphthylene-2-carboxylic acid [4-(4-methyl-piperazin-1-ylmethyl)-phenyl]-amide] | 43 nM | -1% |  |  |
| C#Cc1cccc(N2C(=O)Nc3c(C(=O)Nc4ccc(CN5CCCC5)cc4)sc4ncnc2c34)c1 [Cpd 15, 5-(3-ethynyl-phenyl)-4-oxo-4,5-dihydro-3H-1-thia-3,5,6,8-tetraaza-acenaphthylene-2-carboxylic acid (4-pyrrolidin-1-ylmethyl-phenyl)-amide] | 26 nM | 21% |  |  |
| O=C(Nc1ccc(CN2CCCCC2)cc1)c1sc2ncnc3c2c1NC(=O)N3c1ccc(Cl)cc1Cl [Cpd 25, 5-(2,4-dichloro-phenyl)-4-oxo-4,5-dihydro-3H-1-thia-3,5,6,8-tetraaza-acenaphthylene-2-carboxylic acid (4-piperidin-1-ylmethyl-phenyl)-amide] | 168 nM |  | 768 nM |  |
| O=C(Nc1ccc(CN2CCOCC2)cc1)c1sc2ncnc3c2c1NC(=O)N3c1ccc(Cl)cc1Cl [Cpd 29, 5-(2,4-dichloro-phenyl)-4-oxo-4,5-dihydro-3H-1-thia-3,5,6,8-tetraaza-acenaphthylene-2-carboxylic acid (4-morpholin-4-ylmethyl-phenyl)-amide] | 873 nM |  | 884 nM |  |
| COc1ccc(N2C(=O)Nc3c(C(=O)Nc4ccc(CN5CCCCC5)cc4)sc4ncnc2c34)c(F)c1 [Cpd 66, 5-(2-fluoro-4-methoxy-phenyl)-4-oxo-4,5-dihydro-3H-1-thia-3,5,6,8-tetraaza-acenaphthylene-2-carboxylic acid (4-piperidin-1-ylmethyl-phenyl)-amide] | 524 nM | 11% |  |  |
| COc1ccc(N2C(=O)Nc3c(C(=O)Nc4ccc(OCC5CCCCO5)c(OC)c4)sc4ncnc2c34)c(F)c1 (stereo not drawn) [Cpd 68, 5-(2-fluoro-4-methoxy-phenyl)-4-oxo-4,5-dihydro-3H-1-thia-3,5,6,8-tetraaza-acenaphthylene-2-carboxylic acid [3-methoxy-4-(tetrahydro-pyran-2-ylmethoxy)-phenyl]-amide] | 690 nM | -8% |  |  |
| COc1ccc(N2C(=O)Nc3c(C(=O)Nc4ccc(OC)c(OC)c4)sc4ncnc2c34)c(F)c1 [Cpd 69, 5-(2-fluoro-4-methoxy-phenyl)-4-oxo-4,5-dihydro-3H-1-thia-3,5,6,8-tetraaza-acenaphthylene-2-carboxylic acid (3,4-dimethoxy-phenyl)-amide] | 970 nM | -3% |  |  |
| COc1ccc(Cl)cc1N1C(=O)Nc2c(C(=O)Nc3ccc(CN4CCCCC4)cc3)sc3ncnc1c23 [Cpd 72, 5-(5-chloro-2-methoxy-phenyl)-4-oxo-4,5-dihydro-3H-1-thia-3,5,6,8-tetraaza-acenaphthylene-2-carboxylic acid (4-piperidin-1-ylmethyl-phenyl)-amide] |  | 4% |  | 57% |
| COc1cc(NC(=O)c2sc3ncnc4c3c2NC(=O)N4c2cc(Cl)ccc2OC)ccc1OCCN1CCCCC1 [Cpd 74, 5-(5-chloro-2-methoxy-phenyl)-4-oxo-4,5-dihydro-3H-1-thia-3,5,6,8-tetraaza-acenaphthylene-2-carboxylic acid [3-methoxy-4-(2-piperidin-1-yl-ethoxy)-phenyl]-amide] |  | 4% |  | 56% |
| COc1ccc(Cl)cc1N1C(=O)Nc2c(C(=O)Nc3ccc(CN(C)C[C@H]4CCCO4)cc3)sc3ncnc1c23 [Cpd 75, 5-(5-chloro-2-methoxy-phenyl)-4-oxo-4,5-dihydro-3H-1-thia-3,5,6,8-tetraaza-acenaphthylene-2-carboxylic acid [4-({methyl-[(2R)-tetrahydro-furan-2-ylmethyl]-amino}-methyl)-phenyl]-amide] |  | 2% |  | 46% |
| COc1cc(N2C(=O)Nc3c(C(=O)Nc4ccc(CN5CCCCC5)cc4)sc4ncnc2c34)ccc1Br [Cpd 81, 5-(4-bromo-3-methoxy-phenyl)-4-oxo-4,5-dihydro-3H-1-thia-3,5,6,8-tetraaza-acenaphthylene-2-carboxylic acid (4-piperidin-1-ylmethyl-phenyl)-amide] | 498 nM |  | 695 nM |  |
| COc1cc(N2C(=O)Nc3c(C(=O)Nc4ccc(CN5CCOCC5)cc4)sc4ncnc2c34)ccc1Br [Cpd 84, 5-(4-bromo-3-methoxy-phenyl)-4-oxo-4,5-dihydro-3H-1-thia-3,5,6,8-tetraaza-acenaphthylene-2-carboxylic acid (4-morpholin-4-ylmethyl-phenyl)-amide] | 776 nM |  | 518 nM |  |
| COc1cc(NC(=O)c2sc3ncnc4c3c2NC(=O)N4c2ccc(OCc3ccccn3)c(Cl)c2)ccc1OCCN1CCOCC1 [Cpd 86, 5-[3-chloro-4-(pyridin-2-ylmethoxy)-phenyl]-4-oxo-4,5-dihydro-3H-1-thia-3,5,6,8-tetraaza-acenaphthylene-2-carboxylic acid [3-methoxy-4-(2-morpholin-4-yl-ethoxy)-phenyl]-amide] | 83 nM |  | 350 nM |  |
| Cc1ccc(N2C(=O)Nc3c(C(=O)Nc4ccc(CN5CCCCC5)cc4)sc4ncnc2c34)cc1Br [Cpd 111, 5-(3-bromo-4-methyl-phenyl)-4-oxo-4,5-dihydro-3H-1-thia-3,5,6,8-tetraaza-acenaphthylene-2-carboxylic acid (4-piperidin-1-ylmethyl-phenyl)-amide] | 29 nM |  | 325 nM |  |
